Earlier results, collected in PMC4876928 (Clinical cancer research : an official journal of the …, 2016).

Test system: malignant pleural mesothelioma
Conditions: MPM previously treated with chemotherapy, second-line; cited from earlier work

In the case of `Nc1ccn([C@@H]2O[C@H](CO)[C@@H](O)C2(F)F)c(=O)n1` [gemcitabine], the response rate is given as 2%.
In the case of `CCC1=C[C@@H]2CN(C1)Cc1c([nH]c3ccccc13)[C@@](C(=O)OC)(c1cc3c(cc1OC)N(C)[C@H]1[C@@](O)(C(=O)OC)[C@H](OC(C)=O)[C@]4(CC)C=CCN5CC[C@]31[C@@H]54)C2` [vinorelbine], the response rate is listed as 2%.
